Assays:
M5M11 = test: Test B greenhouse phytotoxicity, M5M11; assay type: in vivo, sunflower; conditions: in vivo
In short: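 Formulated ALS-inhibiting herbicides sprayed post-emergence at the 4-leaf stage on homozygous mutant sunflower inbreds (M5 maintainers and BC4 male-sterile back-crosses) in the greenhouse, at rates commonly used in registered crops. Two replicates; crop injury rated as % phytotoxicity, 0% meaning no injury.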

BC4-M5M7 × PHA155 = test: Test C field phytotoxicity, BC4-M5M7 × PHA155; assay type: in vivo, sunflower
Excerpt: A rating of 0% phytotoxicity means no crop injury.

SMILES | Maximum Phytotoxicity (M5M11) [%] | Phytotoxicity Rating After Treatment (BC4-M5M7 × PHA155; postemergence 7.5 g a.i./ha, 7 DAT) [%] | Phytotoxicity Rating After Treatment (BC4-M5M7 × PHA155; postemergence 7.5 g a.i./ha, 15 DAT) [%] | Phytotoxicity Rating After Treatment (BC4-M5M7 × PHA155; postemergence 7.5 g a.i./ha, 30 DAT) [%] | Phytotoxicity Rating After Treatment (BC4-M5M7 × PHA155; postemergence 15 g a.i./ha, 7 DAT) [%] | Phytotoxicity Rating After Treatment (BC4-M5M7 × PHA155; postemergence 15 g a.i./ha, 15 DAT) [%] | Phytotoxicity Rating After Treatment (BC4-M5M7 × PHA155; postemergence 15 g a.i./ha, 30 DAT) [%]
COC(=O)c1ccccc1S(=O)(=O)NC(=O)N(C)c1nc(C)nc(OC)n1 [Tribenuron-methyl, tribenuron-methyl] | 0 | – | – | – | – | – | –
COC(=O)c1cccc(C)c1S(=O)(=O)NC(=O)Nc1nc(OCC(F)(F)F)nc(N(C)C)n1 [Triflusulfuron-methyl, triflusulfuron-methyl] | – | 38 | 40 | 28 | 57 | 53 | 40
